Columns and labels:
HEK293 Freestyle cells = test: Recombinant protein expression in HEK293 Freestyle cells; format: cell-based; conditions: 70 nM; proteins with a yield of about ≤4 mg/L
Method: To further evaluate general utility of the compounds identified in the HA yield studies, one of the lead compounds, BYF589, was tested on recombinant protein expression using heterologous cells. In particular, proteins that had been previously found to be difficult to express in HEK293 cells were included, which are referred to as “low yielders.” In a typical optimized system, low yielders are defined as having a yield of 5 mg/L or less. About 20 constructs of target proteins with typical yields of between 2-10 mg/L were selected for the experiments. They are secreted mammalian proteins, which are truncated versions of full length counterparts. Each construct (in a variant of the pRS5a vector) contained at least one tag (e.g., at least a C-terminal FlagHis tag—in addition, many are fused N- or C-terminally to mouse IgG1 Fc). Roughly equal numbers of each tag type were selected to reduce bias.
All targets with yields <1 mg/L or >10 mg/L were removed. Next, targets were sorted by tag type. Finally, if it looked like a particular molecular weight range was heavily represented, a few “duplicates” were culled. Then, to select samples, first 6-7 from each tag type were included without additional selection criteria. Resulting target list is reproduced below.
The BYF589 compound was dissolved in DMSO to finally provide a 70 μM working stock (1000×). […]

H3N2 strain IVR-165 = format: cell-based, influenza H3N2; conditions: concentrations as low as 0.05 or even 0.01 μM
[1] = tested on: influenza in MDCK 33016PF cells; format: cell-based
[2] = tested on: influenza H3N2 strain IVR-165 (A/Victoria/361/2011); format: cell-based
[3] = tested on: B/Massachusetts/2/2012 (low-expressing); test: ambr15 mini-bioreactor and shake flask comparison, B strain; format: cell-based, influenza B; conditions: CDM and DM134 media, shake flasks and 15 ml bioreactors
Method: The two lead compounds were further tested in the commercially available small-scale bioreactor system, ambr15™ (TAP Biosystems). The ambr15 system mimics the characteristics of classical bioreactors at microscale (10-15 ml), controlled by an automated workstation, which enables the rapid evaluation of multiple bioreactor cultures at microscale.
To test both lead compounds were tested side-by-side under controlled conditions, with two infection media formulations (DM134 and CDM) and two flu strains, A/Victoria/361/2011 (IVR-165) (high-expressing) and B/Massachusetts/2/2012 (low-expressing). The infection parameters used in the experiment were as follows: seeding density was 1.0×10^6 cells/ml or 2.5×10^6 cells/mL; pH was 7.1+/−0.02 (pH control by dual control with 0.05N NaOH and CO2 gas); DO was 50% (range 50-80%), controlled by O2 gas; agitation was 1000 rpm (local control); temperature was 34.0° C., locally monitored with bioreactor controller probe; vessel type was Spargeless, extended temperature vessels; and, aeration rate during run was 1 mL/min.
The quantification of HA was carried out by ELISA then was subsequently confirmed by HPLC. It was also shown that AFZ077 was able to boost HA yield in the DM134 medium with both low (1×10^6 per mL) and high (2.5×10^6 per mL) infection cell densities in this system. […] Overall, greater enhancement effect seen for low-expressing strains. […]

B/Massachusetts/02/2012 = test: Ambr 250 mL bioreactor, B strain; format: cell-based, influenza B
Method: FIG. 13 provides a graph showing HA yields in the B strain tested with BYF589 at concentrations as indicated.
FIG. 14 provides a graph showing HA yields in the B strain tested with AFZ077 at concentrations as indicated.
The results were confirmed using 3 different viruses (a high-, medium-, and poor-expressing strains). […] To confirm these findings in a larger-scale system, TD Ambr™ 250 mL bioreactors were employed. Both of the lead compounds (as well as DMSO alone as negative control, and, no compound/no DMSO as double-negative control) were tested with a high- and low-expressing strains to determine if the observed enhancement in the small-scale cultures can be reproduced in a larger-scale system. The following parameters were used: Spent DM134:Fresh PFM (1:3); Virus Strains were A/Victoria/361/2011 (IVR-165) and B/Massachusetts/02/2012; MOI was 10^−5 for A/Victoria IVR-165 and 10^−4 for B/Massachusetts; ICD: 2.0e6-3.0e6 cells/mL; N-1 Process: 1B (no Medium Exchange); and, Harvest Time was 65-72 hours post-infection. HA yields were measured by two methods: RP-HPLC and HA-ELISA. […] Note that the error bars represent one standard deviation from the mean, to illustrate variability of the HA-ELISA assay between assay repeats.

[4] = 0 and 60 hr, mass spec

## O=C(O)C[C@H](O)C[C@H](O)/C=C/c1c(C2CC2)nc2ccccc2c1-c1ccc(F)cc1 [Compound G, (3R, 5S, 6E)-7-[2-cyclopropyl-4-(4-fluorophenyl)-quinolin-3-yl)-3,5-dihydroxyhept-6-enoic acid]
HEK293 Freestyle cells
  increase in recombinant protein yield: ≥ 1.5 fold
H3N2 strain IVR-165
  increase in HA yield: 3 fold
[1]
  HA yield enhancement in multiple strains and subtypes of influenza: at least 2 fold
[2]
  HA yield before the decrease (earlier addition): about 20 μg/ml
  HA yield, compound added 2 hours post infection: about 5 μg/ml
[3]
  HA yield enhancement, low-expressing B strain: boosts HA yield
B/Massachusetts/02/2012; 5 nM vs 50 nM vs 500 nM
  effectiveness in increasing protein production yield by concentration: more effective in increasing protein production yield at 5 nM than at 50 nM, which in turn was more effective than at 500 nM
B/Massachusetts/02/2012; 0.005 μM, HA-HPLC
  increase in yield over no DMSO control: about 37%
[4]
  loss of compound in media or media+MDCK cells: No loss of compounds was observed

Source: US11897918B2, “Compositions and methods to increase production” (priority 2014, dated 2024)
